According to PubChem BioAssay AID1963983 (Molecular Pharmacology Branch, DTP, NCI, 2024):

Tested on: 186277-243-T-J2-PDC multi-cell spheroid viability
Assay: Anticancer human tumor 186277-243-T-J2-PDC patient-derived colon adenocarcinoma cell line growth inhibition [PI3K]
Details: for IC50: curve of first compound; for viability, T/C: stronger effect = lower value; active = viability on the fitted dose curve at most 10% of control; inactive = the rest
How it was run: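 Complex 3D spheroids (cancer cells + endothelial HUVEC + mesenchymal stem cells); drug pairs of targeted agent x inavolisib/alpelisib/duvelisib/copanlisib; half-log series from ~Cmax, max 10 microM if Cmax unknown; endpoint viability.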

[1] = second compound 0.0316 µM, first compound 0.0316 µM
[2] = second compound 0.0316 µM, first compound 0.1 µM
[3] = second compound 0.0316 µM, first compound 0.316 µM
[4] = second compound 0.0316 µM, first compound 1 µM
[5] = second compound 0.0316 µM, first compound 3.16 µM
[6] = second compound 0.0316 µM, first compound 10 µM
[7] = second compound 0.1 µM, first compound 0.0316 µM
[8] = second compound 0.1 µM, first compound 0.1 µM
[9] = second compound 0.1 µM, first compound 0.316 µM
[10] = second compound 0.1 µM, first compound 1 µM
[11] = second compound 0.1 µM, first compound 3.16 µM
[12] = second compound 0.1 µM, first compound 10 µM
[13] = second compound 0.316 µM, first compound 0.0316 µM
[14] = second compound 0.316 µM, first compound 0.1 µM
[15] = second compound 0.316 µM, first compound 0.316 µM
[16] = second compound 0.316 µM, first compound 1 µM
[17] = second compound 0.316 µM, first compound 3.16 µM
[18] = second compound 0.316 µM, first compound 10 µM
[19] = second compound 1 µM, first compound 0.0316 µM
[20] = second compound 1 µM, first compound 0.1 µM
[21] = second compound 1 µM, first compound 0.316 µM
[22] = second compound 1 µM, first compound 1 µM
[23] = second compound 1 µM, first compound 3.16 µM
[24] = second compound 1 µM, first compound 10 µM
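Also: spheroids exposed to compounds for seven days before viability reading.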
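For viability, T/C in this document: 100% = DMSO vehicle control viability.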

Cn1nccc1Nc1nccc(-c2ccn(C(CO)c3ccc(Cl)c(F)c3)c(=O)c2)n1 (centres undefined) + Cc1nc(NC(=O)N2CCCC2C(N)=O)sc1-c1ccnc(C(C)(C)C(F)(F)F)c1
1840 nM: IC50 (second compound 0.0316 µM)
< 31.6 nM: IC50 (second compound 3.16 µM) | IC50 (second compound 10 µM)
active: viability, T/C [24] 6.14% | viability, T/C (second compound 3.16 µM, first compound 1 µM) 5.96% | viability, T/C (second compound 3.16 µM, first compound 3.16 µM) 8.12% | viability, T/C (second compound 3.16 µM, first compound 10 µM) 2.21% | viability, T/C (second compound 10 µM, first compound 0.1 µM) 9.03% | viability, T/C (second compound 10 µM, first compound 0.316 µM) 8.27% | viability, T/C (second compound 10 µM, first compound 1 µM) 8.15% | viability, T/C (second compound 10 µM, first compound 3.16 µM) 1.39% | viability, T/C (second compound 10 µM, first compound 10 µM) 2.02%
152 nM: IC50 (second compound 1 µM)
inactive: viability, T/C [1] 89% | viability, T/C [2] 104% | viability, T/C [3] 117% | viability, T/C [4] 71.3% | viability, T/C [5] 34.2% | viability, T/C [6] 18.5% | viability, T/C [7] 91.8% | viability, T/C [8] 108% | viability, T/C [9] 99.5% | viability, T/C [10] 53.8% | viability, T/C [11] 30.9% | viability, T/C [12] 22.5% | viability, T/C [13] 105% | viability, T/C [14] 100% | viability, T/C [15] 76.2% | viability, T/C [16] 34.8% | viability, T/C [17] 20.5% | viability, T/C [18] 9.74% | viability, T/C [19] 94.9% | viability, T/C [20] 61.1% | viability, T/C [21] 30.9% | viability, T/C [22] 13.9% | viability, T/C [23] 14% | viability, T/C (second compound 3.16 µM, first compound 0.0316 µM) 47.4% | viability, T/C (second compound 3.16 µM, first compound 0.1 µM) 29.6% | viability, T/C (second compound 3.16 µM, first compound 0.316 µM) 15% | viability, T/C (second compound 10 µM, first compound 0.0316 µM) 9.88%
1190 nM: IC50 (second compound 0.1 µM)
670 nM: IC50 (second compound 0.316 µM)

Cn1nccc1Nc1nccc(-c2ccn(C(CO)c3ccc(Cl)c(F)c3)c(=O)c2)n1 (centres undefined) + CC(Nc1ccc2c(c1)OCCn1cc(N3C(=O)OCC3C(F)F)nc1-2)C(N)=O
377 nM: IC50 (second compound 0.1 µM)
1770 nM: IC50 (second compound 0.01 µM)
1870 nM: IC50 (second compound 0.00316 µM)
1470 nM: IC50 (second compound 0.0316 µM)
< 31.6 nM: IC50 (second compound 1 µM)
inactive: viability, T/C (second compound 0.00316 µM, first compound 0.0316 µM) 105% | viability, T/C (second compound 0.00316 µM, first compound 0.1 µM) 114% | viability, T/C (second compound 0.00316 µM, first compound 0.316 µM) 113% | viability, T/C (second compound 0.00316 µM, first compound 1 µM) 69.3% | viability, T/C (second compound 0.00316 µM, first compound 3.16 µM) 37.2% | viability, T/C (second compound 0.00316 µM, first compound 10 µM) 22.8% | viability, T/C (second compound 0.01 µM, first compound 0.0316 µM) 111% | viability, T/C (second compound 0.01 µM, first compound 0.1 µM) 121% | viability, T/C (second compound 0.01 µM, first compound 0.316 µM) 109% | viability, T/C (second compound 0.01 µM, first compound 1 µM) 67.3% | viability, T/C (second compound 0.01 µM, first compound 3.16 µM) 33.5% | viability, T/C (second compound 0.01 µM, first compound 10 µM) 22% | viability, T/C [1] 103% | viability, T/C [2] 110% | viability, T/C [3] 98.4% | viability, T/C [4] 61.1% | viability, T/C [5] 28.1% | viability, T/C [6] 20.9% | viability, T/C [7] 124% | viability, T/C [8] 86.5% | viability, T/C [9] 54.2% | viability, T/C [10] 28.9% | viability, T/C [11] 16.4% | viability, T/C [13] 70.4% | viability, T/C [14] 44.5% | viability, T/C [15] 20.3% | viability, T/C [16] 15.9% | viability, T/C [19] 38.1% | viability, T/C [20] 29.4% | viability, T/C [21] 14.2%
74.7 nM: IC50 (second compound 0.316 µM)
active: viability, T/C [12] 7.14% | viability, T/C [17] 9.67% | viability, T/C [18] 4.2% | viability, T/C [22] 9.05% | viability, T/C [23] 10.6% | viability, T/C [24] 3.67%
